The values below come from patent US20080248012A1, “Erythrocyte Function Modifying Substance” (KEIO UNIVERSITY, priority 2004, published 2008).

Each structure is given as a SMILES string. Entries after “also recorded” stand apart in the source; their conditions may differ.

The test system of the assay is human erythrocytes. Put plainly: ATP release from erythrocytes at adjusted oxygen / CO2 partial pressure, luciferin assay. Particulars: for ATP release at various CO2 partial pressures: PCO2 0 to 80 mmHg, 5 minutes; for ATP release from erythrocytes in relation to oxygen partial pressure: PO2 0-150 mmHg, 37° C., 5 min, bezafibrate 10^−4 mol/L (30 min), 100% CO gas 1 min, NO 0.5 equivalents to hemoglobin. In kind it is cell-based. Here is the method:
Human peripheral blood sample (20 ml) was taken, heparinized and centrifuged at 2000 rpm for 7 minutes. The erythrocyte pellet was collected and washed. Then, an erythrocyte suspension (1×10^7 cells/ml) was prepared with Krebs buffer. A tightly sealed cuvette containing 1.8 ml of Krebs buffer in which oxygen concentration is adjusted at a desired level within a range of 0-150 mmHg was incubated at 37° C. A 200 μl aliquot of the erythrocyte suspension was injected into the tightly sealed cuvette with a microsyringe. After 5 minutes, the cuvette was placed in ice at 4° C. to terminate the reaction. A 200 μd sample was taken while it was still 4° C., and centrifuged. The ATP in the resultant supernatant was quantitatively determined by luciferin assay.
In this example, the effects of carbon monoxide-saturated erythrocytes (CO-Hb) and NO treated erythrocytes (αNO-Hb) on ATP release were examined. The method was as described in Example 1 above. In order to examine the effect of NO, an experiment was conducted using erythrocytes prepared as described below. Briefly, collected erythrocytes were completely deoxygenated by feeding argon gas. Then, NO-glutathione was added thereto so that the concentration of this substance to the concentration of Hb was 1:2. Several minutes after the addition, the erythrocytes were centrifuged and recovered. The hemoglobin contained in the above erythrocytes is expressed as “αNO-Hb”.
Briefly, adenosine was added to the extracellular fluid of erythrocytes for 5 minutes. To a tightly sealed cuvette containing Krebs buffer adjusted to have a desired oxygen partial pressure within a range of 0-150 mmHg, the erythrocyte suspension was injected and the reaction was terminated 1 minute thereafter.
The method used was according to the method in Example 1. The amounts of ATP release when erythrocytes were exposed to various CO2 partial pressures (PCO2) from 0 to 80 mmHg for 5 minutes were measured.

As for `O=C=O` [carbon dioxide], the “ATP release at various CO2 partial pressures” value is “not affected by PCO2” (Anoxia (no oxygen state)) and “increased at 60-80 mmHg” (Normoxia).

With `O=S(=O)(O)c1cc(N=C=S)ccc1C=Cc1ccc(N=C=S)cc1S(=O)(=O)O` [DIDS, 4,4′-diisothiocyanate-stilbene-2,2′-disulfonic acid], the “ATP release increase due to low oxygen” value (10^−4 mol/L DIDS, oxygen partial pressures of 0-140 mmHg) was “inhibits ATP release increase due to low oxygen”. Further, for the setting “CO(+) erythrocytes, presence/absence of adenosine”, the “amount of ATP release, DIDS addition vs no addition” value is given as “no difference”. In addition, the “ATP release increase due to low oxygen, concentration-dependent effect” value (CO-untreated erythrocytes, Anoxia 0 mmHg vs Normoxia) was “inhibited depending on the concentration of DIDS”.

Consider `Nc1ncnc2c1ncn2[C@@H]1O[C@H](CO)[C@@H](O)[C@H]1O` [adenosine], for which the “enhancement of ATP release under normal oxygen concentration” value (1 μmol/L adenosine in extracellular fluid 5 min) is “enhanced almost two times”. Further, where the note is “1 μmol/L adenosine in extracellular fluid 5 min, then no/low oxygen 1 minute”, the “enhancement of ATP release under no oxygen or low oxygen” value is on record as “enhanced almost two times; also recorded: increases ATP release about two times; also recorded: enhanced about two times”. Moreover, for the setting “Normoxia, raised PCO2, in the presence of adenosine”, the “ATP release enhancement, adenosine combined with carbon dioxide” value was “synergetic high effect”.

As to `N[C@@H](CCC(=O)N[C@@H](CSN=O)C(=O)NCC(=O)O)C(=O)O` [NO derivative, NO-glutathione], the “ATP release from erythrocytes in relation to oxygen partial pressure” value (shortened to “ATP release from erythrocytes”) was “released ATP constantly regardless of the oxygen partial pressure”.

In the case of `[N]=O` [NO, nitric oxide], the “ATP release from erythrocytes” value was “released ATP constantly regardless of the oxygen concentration”.

On to `[C-]#[O+]` [CO, carbon monoxide], for which the “ATP release from erythrocytes” value was “this ability was completely eliminated”. Further, the “ATP release from erythrocytes” value (listed as carbon monoxide) is “released little ATP regardless of the oxygen partial pressure”.
